# Reference: patent US20030175365A1, “Natural drug induced differentiation cancer cells to resemble normal cells” (priority 2002, published 2003)
# Marks after values point to notes of the source that are not given here.
# How the values were obtained:
# HL-60 cells = test: Induction of differentiation of human leukemic cells (NBT reduction, NSE staining); assay type: cell-based; conditions: Leukemic cells + HHT; P < 0.001 vs leukemic cells
# Description: Cell Lines. HL-60 cells were established from a patient with acute myeloid leukemia. The cells were cultured in culture flasks with RPMI plus 10% FCS.
# Studies of Induction of Differentiation. Differentiation of HL-60 cells was assessed by their abilities to produced superoxide as measured by reduction of NBT, by NSE staining and by morphology as detected on cytospin preparations stained with Diff-Quick stain Set, and by analysis of membrane-bound differentiation markers with two-color immunofluorescence. Briefly, cells were preincubated at 4° C. for 60 min in 10% human AB serum and then with FITC-conjugated mouse IgGI isotype control. Analysis of fluorescence was performed on a flow cytometer.
# gastric cancer cells = test: Differentiation of gastric cancer cells (NBT, NSE); assay type: cell-based; conditions: Gastric cancer cells + HHT; P < 0.001
# Description: The gastric cancer cells and normal cells were cultured in PRMI 1640 medium supplement with 10% FCS serum. Other method is similar to example 1.
# Epidermis cancer cells = test: Differentiation of epidermis cancer cells (NBT, NSE); assay type: cell-based, mouse; conditions: Epidermis cancer cells + HHT; P < 0.001
# [1] = system: TPA-stimulated mouse epidermis; test: [3H] thymidine incorporation (DNA synthesis) in TPA-stimulated mouse epidermis; assay type: in vivo; conditions: TPA-treated mice
# Description: It is known that tetradecanoyphorbol-13-acetate (TPA) is strong tumor promoter and TPA can remarkable increase [^3H] thymidine incorporation in mouse epidermis and then to induce Epidermis cancer.
# ice were treated with TPA and the rate of [^3H] thymidine incorporation was determined 20 hours later. Male mice (7-9 weeks old) used for experiments. Only mice showing no hair regrowth following shaving were used. Animals were injected intraperitoneally (i.p.) with TPA or 95% saline. After 20 hours, mice were injected i.p. with 60 μCi of [^3H] thymidine (2 Ci/mmol) 20 minutes before sacrifice. Epidermal scrapings were prepared. Epidermis cancer cells were cultured in condition of example 1.
# [2] = system: Human leukemia cells (HL-60); test: Apoptosis of cancer cells; assay type: cell-based; conditions: drug concentration 20 μm
# Description: Human leukemia cells (HL-60) were grown in RPMI Medium 1640 supplemented with 10% (v/v) heat-inactivated FBS (56° C. for 30 min) at 37° C. in a humidified 95% air/5% CO2 atmosphere. Cells were seeded at a level of 2×10^5 cells/ml. Cells were allowed to attain a maximum density of 1.2×10^6 cells/ml before being passed by dilution into fresh medium to a concentration of 2×10^5 cells/ml.
# Apoptosis Determined by two Methods:
# Method (1): Cell pellets containing 5×10^6 cells were fixed with 2.5% glutaraldehyde in cacodylate buffer (pH 7.4), dehydrated through graded alcohol, and infiltrated with LX-112 epoxy resin. After overnight polymerization at 60°C. […]
# DNA electrophoresis: Untreated and treated HL-60 cells collected by centrifugation, washed in phosphate buffered saline and re-suspended at a concentration of 5×10^6 cells and 0.1% RNase A. The mixture was incubated at 37° C. for 30 min and then incubated for an additional 30 min at 37° C. with 1 ml protease K. Buffer was added and 25 μl of the tube content transferred to the Horizontal 1.5% agarose gel electrophoresis was performed at 2 V/cm. […] DNA fragmentation assays: DNA cleavage was performed, quantitation of fractional solubilized DNA by diphenylamine assay and the percentage of cells harboring fragmented DNA determined by in labeling techniques. […] DNA was precipitated with 0.5 N perchloric acid and quantitated using diphenylamine reagent. […]
# c-myb RNA = test: Oncogene expression by northern blot in ML-1 cells: c-myb; assay type: cell-based, Human
# Description: (§1) Human myeloblastic leukemic cells (ML-1) were maintained in suspension culture in RPMI 1640 medium supplemented with 7.5% heat-inactivated FBS. Cells growth and viability were assayed by hemocytometer using trypan-blue dye exclusion.
# (§2) RNA was isolated by the CsCl gradient modification. RNA pellets were washed twice by reprecipitation in ethanol and quantitated by absorbency at […]. RNA analyzed by electrophoresis of 15 μg of RNA through 1.2% agarose formaldehyde gels followed by northern blot transfer to nitrocellulose.
# (§3) Single-standard uniformly labeled DNA probes were prepared. Probe of c-myc was a 1.7 Kb cla-Eco RI restriction fragment containing the 3′exon region of human c-myc and probe of c-myb was 1.0 Kb myb-specific Bam HI fragment. Probes for n-ras contained DNA fragments using a modification of the PCR technique. Probes for myb, myc and n-ras were isolated. The isolated fragments were labeled to high specific activity with […] (3000 ci/mmol). Prehybridization of the filter was performed. The hybridization mixer contained 50,000 cpm of probe. The probes were hybridized at 58° C. in 15 mM NaCl, […] sodium citrate for 3 hours. After hybridization, they were exposed to XAR-5 film. Oncogene expression was quantitated by densitometer scanning of the autoradiography.
# c-myc RNA = test: Oncogene expression by northern blot in ML-1 cells: c-myc; assay type: cell-based, Human
# Description: as §1, §2, §3
# tumor suppressor p^53 = test: p53 mutations by PCR-SSCP; assay type: cell-based
# Description: The leukemic cancer cells and normal cells were cultured in RPMI 1640 medium supplement with 10% fetal bovine serum. All the exons of the p^53 were amplified by the polymease chain reaction (PCR) using specific oligonucleotide primers. The PCR products were subjected to single-strand conformation polymorphism (SSCP) analysis. […] Levels of DNA methylation were determined.
# tumor suppressor p^17 = test: p17 allelic loss by PCR-SSCP; assay type: cell-based
# Description: The p^17 is a tumor suppressor. The gastric cancer cells were used in this experiment. Gastric cancer cells and normal cells were cultured in RPMI 1640 medium supplement with 10% fetal bovine serum. All the exons of tumor suppressor p^17 were amplified by the polymease chain reaction (PCR) using specific oligonucleotide primers. The PCR products were subjected to single-strand conformation polymorphism (SSCP) analysis. A second PCR-SSCP analysis was performed. Levels of DNA methylation were determined.
# tumor suppressor p^16 = test: Methylation of tumor suppressor p16 (PCR-based) in bladder cell lines; conditions: Cancer cells treated by HHT (no treatment: 81.5; normal: 15.8)
# Description: Bladder cell lines were used. Methods of RT-PCR were regular. PCR-based methylation determined by inability of some restriction enzymes to cut methylated sequences methods of determination was used to analyze the methylaton status of the p^16 and p^15 . PCR products were resolved on 2% agarose gels transferred to a nylon membrane and hydridized for the RT-PCR products. An undigested DNA control and MSPI-digested DNA control were examined.
# HL-60 = test: Tumor cell proliferation inhibition, HL-60; assay type: cell-based, Human; conditions: 1 μg/ml drug, 72 hours
# Description: (§4) Human tumor cell lines: Hela leukemia HL-60, malignant melanocarcinoma B16, oral epidermoid carcinoma (KB), lung carcinoma (A549), breast carcinoma MCF-7, adenocarcinoma of stomach.
# (§5) Animal tumor cell lines: Walker carcinoma, LLC-WRC-256, malignant melanoma (RMMI 1846), 3T3,and S-180 sarcoma (CCRF-180). All lines were routinely cultured in the RPMI1640 medium supplemented 20% fetal calf serum. The experiment was carried out in 96 microplate, each well had […] and given desired concentration of 1 μg/ml (1 x 10^−6 g/ml) drug. Then the plate was incubated at 37° C. in an atmosphere of humidified air enriched with 5 percent carbon dioxide for 72 hours.
# (§6) Inhibition percent rate of tumor cell proliferation was obtained according to the bellow formula. [formula]
# Hela = test: Tumor cell proliferation inhibition, Hela; assay type: cell-based, Human; conditions: 1 μg/ml drug, 72 hours
# Description: as §4, §5, §6
# [3] = system: malignant melanocarcinoma B16; test: Tumor cell proliferation inhibition, B16; assay type: cell-based, Mouse; conditions: 1 μg/ml drug, 72 hours
# Description: as §4, §5, §6
# [4] = system: oral epidermoid carcinoma (KB); test: Tumor cell proliferation inhibition, KB; assay type: cell-based, Human; conditions: 1 μg/ml drug, 72 hours
# Description: as §4, §5, §6
# breast carcinoma MCF-7 = test: Tumor cell proliferation inhibition, MCF-7; assay type: cell-based, Human; conditions: 1 μg/ml drug, 72 hours
# Description: as §4, §5, §6
# [5] = system: Neuroblastoma tumor cells, melanocytic and epithelial cells; test: Apoptosis with HHT and APO-2L (filter binding assay); assay type: cell-based
# Description: (§7) Neuroblastoma tumor cells, melanocytic and epithelial cells used in this experiment. Cells were grown routinely as monolayers in a 1:1 mixture of Eagle's minimum essential medium and Ham's nutrient mixture F-12 supplemented with 15% heat-inactivated fetal calf serum. Cells were used over a maximum of 15 passages to minimize intersubline differentiation.
# Cytotoxicity Assays. Etoposide sensitivity was measured by clonogenic assay. Five hundred cells were plated per 2-cm^2 dish. Cells were treated for 1 hour with HHT or medium. Results are the mean ±S.E. of three independent experiments and duplicate plates were used in each individual experiment. Apoptosis was quantified by the filter binding assay.
# caspase-3 = test: Determination of caspase activation (Ac-DEVD-AMC substrate, cell lysate); assay type: cell-based; conditions: control 25.4 ± 3.0
# Description: as §7
# Determination of Caspase Activation. The substrate used was Ac-DEVD-AMC, which was made to 5 mM stock in dimethylformamide. On the day of the assay, substrate stock was diluted in water to 500 μM and kept on ice. Cell lysate (20 μg) was diluted to equal volumes (20 μl) in Nonidet-P40 lysis buffer and 1/10th of the volume of substrate was added. Exactly 10 min later, the reaction was stopped by adding the mix into 2 ml of water. Fluorescence was read on a fluorometer at an excitation wavelength of 380 nm and emission wavelength of 460 nm.
# mice = test: LD50 in mice; assay type: in vivo; conditions: I.P.
# Description: (§8) Toxic doses for dogs: 0.16 mg/kg/day×7 of HHT was established as the toxic doses. Toxic doses for mice: In 38 normal mice after injection of HHT of 2 mg/kg/day×5 with the observation period of 5 days about 50% of the mice died.
# dogs = test: Toxic doses for dogs; assay type: in vivo; conditions: ×7
# Description: as §8
# normal mice = test: Toxic doses for mice (repeated injection); assay type: in vivo; conditions: 38 normal mice, injection of 2 mg/kg/day×5, observation period of 5 days
# Description: as §8
molecule,measurement,setting,value
"COC(=O)C[C@](O)(CCCC(C)(C)O)C(=O)O[C@@H]1C(OC)=C[C@]23CCCN2CCc2cc4c(cc2[C@H]13)OCO4 [HHT, homoharringtonine]",NBT (%),HL-60 cells,65* %
same,NSE (%),HL-60 cells,62* %
same,NBT (%),gastric cancer cells,58* %
same,NSE (%),gastric cancer cells,60* %
same,NBT (%),Epidermis cancer cells,80* %
same,NSE (%),Epidermis cancer cells,78* %
same,DNA synthesis of TPA-stimulated mouse epidermis,[1],remarkable inhibit
same,Apoptosis (%),[2],68.3 ± 7.6%
same,Inhibition (%) c-myb RNA,c-myb RNA; HHT concentration 10 ng/ml,65.0 ± 5.7%
same,Inhibition (%) c-myb RNA,c-myb RNA; HHT concentration 50 ng/ml,67.7 ± 6.8%
same,Inhibition (%) c-myc RNA,c-myc RNA; HHT concentration 10 ng/ml,70.5 ± 8.5%
same,Inhibition (%) c-myc RNA,c-myc RNA; HHT concentration 50 ng/ml,70.8 ± 8.9%
same,Frequency of p^53 mutations (%),tumor suppressor p^53; Gastric cancer cells treated by HHT (no drug: 35),5%
same,Inhibition T/C (%),"tumor suppressor p^53; p^53 mutations, Gastric cancer cells treated by HHT",14.3 ± 1.5%
same,Frequency of p^17 allelic loss (%),tumor suppressor p^17; Leukemic cancer cells treated by HHT (untreated: 40),5%
same,Inhibition T/C (%),"tumor suppressor p^17; p^17 allelic loss, Leukemic cancer cells treated by HHT",12.5 ± 1.2%
same,Methylation (%),tumor suppressor p^16,23.8^b %
same,Inhibition (%),HL-60,80.8 ± 9.0%
same,Inhibition (%),Hela,75.6 ± 8.0%
same,Inhibition (%),[3],73.8 ± 8.1%
same,Inhibition (%),[4],80.0 ± 8.5%
same,Inhibition (%),breast carcinoma MCF-7,78.5 ± 7.9%
same,Apoptosis (%),[5]; HHT 500 nM (control 5.0 ± 0.49),39.5 ± 4.1%
same,Caspase-3 activity,caspase-3,150.5 ± 16
same,LD50,mice,3.17 ± 0.19 mg/kg
same,Toxic dose,dogs,0.16 mg/kg/day
same,mice died,normal mice,about 50%
"APO-2L: also called TRAIL, has been shown to induce apoptosis of variety of cancer cell types (protein, UniProt P50591 1-281, looked up) Tumor necrosis factor ligand …: MAMMEVQGGPSLGQTCVLIVIFTVLLQSLCVAVTYVYFTNELKQMQDKYSKSGIACFLKEDDSYWDPNDEESMNSPCWQVKWQLRQLVRKMILRTSEETISTVQEKQQNISPLVRERGPQRVAAHITGTRGRSNTLSSPNSKNEKALGRKINSWESSRSGHSFLSNLHLRNGELVIHEKGFYYIYSQTYFRFQEEIKENTKNDKQMVQYIYKYTSYPDPILLMKSARNSCWSKDAEYGLYSIYQGGIFELKENDRIFVSVTNEHLIDMDHEASFFGAFLVG",Apoptosis (%),[5]; APO-2L (control 5.0 ± 0.49),20.8 ± 2.0%
